In patent US6761884B1, “Vectors including foreign genes and negative selective markers” (The United States of America as represented by the …, priority 1991, dated 2004):

How the values were obtained:
[1] = tested on: WP4 tumor cells containing the HSV-TK gene; assay: Subcutaneous tumors from WP4 cells containing the HSV-TK gene in mice, ganciclovir treatment; format: in vivo, C57BL/6 or BNX mice
Description: (§1) WP4 tumor cells form tumors in C57BL/6 or BNX mice when injected subcutaneously. The number of cells required for tumor formation will vary depending of the strain of mouse used. C57BL/6 mice require 5×10^6-1×10^7 cells for tumor formation in 10-14 days. BNX mice require 1-5×10^4 cells for tumor formation in 10-14 days. Tumor cells are suspended in PBS and injected subcutaneously into the hind flank in a 0.5 ml volume. Five to ten days after tumor inoculation, ganciclovir is administered intraperitoneally twice daily for 5 days. A 2-5 mg/ml solution of ganciclovir prepared in serum-free medium (RPMI 1640, DMEM, or other) is used to achieve a dose of 125-150 mg/kg. Animals are monitored and tumor measurements made twice weekly.
(§2) At the time of ganciclovir administration, tumors are palpable, but unmeasurable. Tumors arising from untransduced WP4 cells reach a size of 2.0-2.5 cm^3 in 40-45 days with or without ganciclovir administration. Tumor cells containing the HSV-TK gene initially form palpable tumors then regress completely and become undetectable within 10-20 days after the start of ganciclovir treatment. Complete, long term tumor ablation is observed in 60-80% of mice having received selected cells plus ganciclovir therapy.

[2] = tested on: untransduced WP4 cells; assay: Ganciclovir killing of untransduced WP4 cells, methylene blue staining; format: cell-based, murine; details: 24-well plate, ganciclovir 0.01-100 uM, stained at 5 to 7 days
Description: This example employs a clone (WP4) (Asher et al., J. Inmunol, Vol. 146, pg. 3227 (1991)) of a murine tumor cell line MCA205 (Wexler et al., J. Natl. Canc. Inst., Vol. 63, pg. 1393 (1979)) for assessing the utility of the HSV-TK gene in a “suicide” system.
Transduced “selected” cells are then plated in 24-well tissue culture plate at 1-2.5×10^4 cells per well. After 24 hrs. of culture, ganciclovir is added in concentrations ranging from 0.01-100 uM, the cells are monitored for growth and all wells are stained in methylene blue when the control wells (no ganciclovir added) are confluent (at 5 to 7 days). Complete killing of transduced selected cells is observed at concentrations from 0.1 to 1.0 uM of ganciclovir, while untransduced cells are killed at concentrations of 100 uM or greater.

[3] = tested on: untransduced WP4 tumor cells; assay: Subcutaneous tumors from untransduced WP4 cells in mice, ganciclovir treatment; format: in vivo, C57BL/6 or BNX mice; details: in 40-45 days, with or without ganciclovir administration (125-150 mg/kg i.p. twice daily for 5 days)
Description: as §1, §2

In the case of `Nc1nc(O)c2ncn(COC(CO)CO)c2n1` [ganciclovir], the “Time after start of ganciclovir treatment by which tumors regress completely and become undetectable” value ([1]; 125-150 mg/kg intraperitoneally twice daily for 5 days, started 5-10 days after tumor inoculation) is reported as 10 to 20 days, the “Mice with complete, long term tumor ablation” value ([1]; mice having received selected cells plus ganciclovir therapy, 125-150 mg/kg i.p. twice daily for 5 days) is reported as 60-80% and the “Concentration at which untransduced cells are killed” value [2] is reported as ≥ 100 µM. For the same molecule, the “Tumor size reached by tumors arising from untransduced WP4 cells” value [3] was 2.0-2.5 cm^3.
